The CheMixHub viscosity set

Experiment: xn = mol fraction of the nth substance listed

COCCOCCOC + CCCOC(C)=O
viscosity [mPa·s], 101.3 kPa
Conditions | 298.15 K | 308.15 K | 318.15 K
x1 = 0.0296 | 0.567 | 0.499 | 0.447
x1 = 0.076 | 0.586 | 0.515 | 0.46
x1 = 0.0957 | 0.594 | 0.521 | 0.467
x1 = 0.1388 | 0.611 | 0.534 | 0.478
x1 = 0.1878 | 0.633 | 0.551 | 0.492
x1 = 0.2478 | 0.656 | 0.572 | 0.508
x1 = 0.3236 | 0.688 | 0.597 | 0.528
x1 = 0.3893 | 0.716 | 0.619 | 0.544
x1 = 0.4382 | 0.736 | 0.635 | 0.557
x1 = 0.5153 | 0.769 | 0.662 | 0.579
x1 = 0.5945 | 0.805 | 0.691 | 0.603
x1 = 0.6605 | 0.835 | 0.715 | 0.626
x1 = 0.735 | 0.87 | 0.744 | 0.648
x1 = 0.7756 | 0.888 | 0.759 | 0.659
x1 = 0.8324 | 0.916 | 0.779 | 0.676
x1 = 0.8696 | 0.933 | 0.793 | 0.687
x1 = 0.9082 | 0.954 | 0.808 | 0.699
x1 = 0.9425 | 0.97 | 0.822 | 0.71
x1 = 0.9777 | 0.988 | 0.835 | 0.722
x2 = 0.0101 | – | – | 0.725
x2 = 0.0103 | 0.991 | 0.84 | –

CCCCCCn1cc[n+](C)c1.F[B-](F)(F)F + CC(C)O
101 kPa
Conditions | viscosity [mPa·s]
293.15 K, x1 = 0.7711 | 78.36
313.15 K, x1 = 0.08354 | 1.965
323.15 K, x1 = 0.238 | 3.035
323.15 K, x1 = 0.8507 | 28.15

COCCOCCOC + CCCCCC
viscosity [mPa·s], 101.33 kPa
Conditions | x1 = 0.1017 | x1 = 0.2006 | x1 = 0.3006 | x1 = 0.3974 | x1 = 0.4983 | x1 = 0.4984 | x1 = 0.5986 | x1 = 0.6954 | x1 = 0.8011 | x1 = 0.8957
298.15 K | 0.326 | 0.362 | 0.407 | 0.455 | – | 0.52 | 0.584 | 0.662 | 0.761 | 0.868
303.15 K | 0.31 | 0.344 | 0.385 | 0.43 | – | 0.49 | 0.548 | 0.62 | 0.71 | 0.806
308.15 K | 0.294 | 0.324 | 0.362 | 0.404 | 0.461 | – | 0.512 | 0.576 | 0.657 | 0.75
313.15 K | 0.28 | 0.308 | 0.345 | 0.383 | 0.434 | – | 0.482 | 0.541 | 0.616 | 0.699
318.15 K | 0.268 | 0.285 | 0.326 | 0.363 | 0.41 | – | 0.457 | 0.511 | 0.579 | 0.657

C1N2CN3CN1CN(C2)C3 + O
101 kPa
Conditions | viscosity [mPa·s]
293.15 K, x1 = 0.003601 | 1.028
293.15 K, x1 = 0.007176 | 1.072
293.15 K, x1 = 0.01043 | 1.127
293.15 K, x1 = 0.01396 | 1.205
293.15 K, x1 = 0.01775 | 1.308
297.35 K, x1 = 0.022 | 1.515
297.35 K, x1 = 0.031 | 1.736
297.35 K, x1 = 0.041 | 2.087
297.55 K, x1 = 0.052 | 2.537
298.15 K, x1 = 0.003601 | 0.928
298.15 K, x1 = 0.007176 | 0.979
298.15 K, x1 = 0.01043 | 1.033
298.15 K, x1 = 0.01396 | 1.101
298.15 K, x1 = 0.01775 | 1.185
300.15 K, x1 = 0.003601 | 0.83
300.15 K, x1 = 0.007176 | 0.874
300.15 K, x1 = 0.01043 | 0.922
300.15 K, x1 = 0.01396 | 0.982
300.15 K, x1 = 0.01775 | 1.058
302.15 K, x1 = 0.022 | 1.389
302.35 K, x1 = 0.031 | 1.627
302.35 K, x1 = 0.052 | 2.222
302.75 K, x1 = 0.041 | 1.832
305.15 K, x1 = 0.003601 | 0.74
305.15 K, x1 = 0.007176 | 0.777
305.15 K, x1 = 0.01043 | 0.822
305.15 K, x1 = 0.01396 | 0.884
305.15 K, x1 = 0.01775 | 0.967
306.95 K, x1 = 0.031 | 1.483
307.35 K, x1 = 0.022 | 1.321
307.35 K, x1 = 0.041 | 1.689
307.35 K, x1 = 0.052 | 2.056
311.95 K, x1 = 0.022 | 1.251
312.15 K, x1 = 0.031 | 1.375
312.15 K, x1 = 0.041 | 1.595
312.15 K, x1 = 0.052 | 1.864

CNc1ccccc1 + CS(C)=O
303 K, 101.33 kPa
Conditions | viscosity [mPa·s]
x1 = 0.101 | 1.844
x1 = 0.2001 | 1.861
x1 = 0.3007 | 1.939
x1 = 0.3986 | 2.046
x1 = 0.4987 | 2.03
x1 = 0.6003 | 2.106
x1 = 0.6987 | 2.12
x1 = 0.8007 | 2.057
x1 = 0.9015 | 1.911

Oc1ccccc1 + Cc1cccc(O)c1
298.15 K, 101 kPa
Conditions | viscosity [mPa·s]
x1 = 0.1259 | 12.5
x1 = 0.2449 | 11.69
x1 = 0.3137 | 11.31
x1 = 0.3848 | 10.95
x1 = 0.4502 | 10.7
x1 = 0.5174 | 10.4
x1 = 0.6352 | 9.961
x1 = 0.7325 | 9.698
x1 = 0.819 | 9.398
x1 = 0.8921 | 9.206
x1 = 0.9301 | 9.105

CNc1ccccc1 + CCCO
viscosity [mPa·s], 101.33 kPa
Conditions | x1 = 0.1008 | x1 = 0.1995 | x1 = 0.2999 | x1 = 0.4015 | x1 = 0.5012 | x1 = 0.6016 | x1 = 0.7016 | x1 = 0.8003 | x1 = 0.9016
303.15 K | 1.608 | 1.532 | 1.502 | 1.494 | 1.502 | 1.527 | 1.551 | 1.61 | 1.688
308.15 K | 1.433 | 1.37 | 1.345 | 1.337 | 1.347 | 1.368 | 1.392 | 1.446 | 1.512
313.15 K | 1.29 | 1.235 | 1.21 | 1.204 | 1.219 | 1.235 | 1.26 | 1.306 | 1.347
318.15 K | 1.161 | 1.116 | 1.096 | 1.092 | 1.097 | 1.123 | 1.145 | 1.188 | 1.247
323.15 K | 1.051 | 1.01 | 1 | 0.9995 | 1.012 | 1.026 | 1.047 | 1.091 | 1.142

Oc1ccccc1 + Clc1ccccc1
293.15 K, 101 kPa
Conditions | viscosity [mPa·s]
x1 = 0.0584 | 0.825
x1 = 0.115 | 0.888
x1 = 0.2493 | 1.122
x1 = 0.3435 | 1.274
x1 = 0.4323 | 1.673
x1 = 0.5436 | 2.218
x1 = 0.6243 | 2.748
x1 = 0.7492 | 4.07
x1 = 0.84 | 5.555
